Measured values reported in US11167059B2, “Compositions with reactive ingredients, and wound dressings, apparatuses, and methods” (KCI Licensing, Inc., priority 2010, dated 2021).

Columns and labels:
[1] = compatibility of suspension agents with Ca(OCl)2 (OCl− concentration by UV-Vis); type: physicochemical; conditions: about 13 mg Ca(OCl)2 in methylene chloride solution of agent, about one hour in the dark
Experimental: FIG. 6B depicts a chart illustrating the correlation of hypochlorite concentration from the UV absorbance of FIG. 6A with corresponding concentrations obtained by Iodine titration. FIG. 6C depicts a chart of OCl^− concentration in solutions with certain of the present suspension agents, including a control of only Ca(OCl)2 in solution (of methylene chloride), Ca(OCl)2 in PCL-1 solution having 0.5 g of PCL per 100 mL of methylene chloride; Ca(OCl)2 in PCL-2 solution having 1.0 g of PCL per 100 mL of methylene chloride; and Ca(OCl)2 in solution with TWEEN 80 (also known as polysorbate 80) having 0.1 g of TWEEN 80 per 10 g of methylene chloride. […] For each solution, approximately 13 mg of Ca(OCl)2 was added to each methylene chloride solution and the solution was placed in the dark for a period of about one hour. Then 5 mL of distilled water was added to each solution, and each was shaken to mix its respective ingredients. […] After settling, for each solution, one milliliter of the aqueous layer was removed and mixed with 10 mL of 0.1 N NaOH (e.g., to increase the pH to ensure all hypochlorous acid is converted to hypochlorite for complete capture of active chlorine), and evaluated with UV-Vis spectroscopy to determine the concentration of OCl (e.g., to determine whether the OCl— had degraded or been consumed by the polymer).

[2] = test system: Methicillin-resistant Staphylococcus aureus (MRSA); test: inhibition zone on MRSA monolayer in petri dish; type: cell-based; conditions: 30 μg control dose, 18 hours at 37° C.
Experimental: Experiments were performed for some of the present reactive agents (and/or resulting solutions) to investigate their antibacterial properties. In a first experiment, an even monolayer of Methicillin-resistant Staphylococcus aureus (MRSA) bacteria was spread across the surface of each of several petri dishes, and either a 30 μg control dose of Vancomycin, or an 8 mm×5 mm piece of sponge was placed on each petri dish. The pieces of sponge included: a piece of polyurethane foam coated with a silver (Ag), a piece of dry silicone foam, a piece of silicone foam impregnated with a Polyhexanide solution, a piece of silicone foam deposited with Ca(ClO)2 salt, and a piece of silicone foam deposited with NaClO salt. After placement of the pieces of foam, saline was dropped onto the foams deposited with Ca(ClO)2 and NaClO salts, respectively, Each petri dish was incubated for eighteen (18) hours at 37° C., and the clear area in which the bacteria had been killed (inhibition zone) was measured. […] In a second, similar experiment, the monolayer of bacteria was E. Coli instead of MRSA, and the remainder of the second experiment was substantially the same as the first. The results of the second experiment were also similar. […] From these preliminary experiments, the inventors believe the present reactive agents and the resulting solutions to have effective antimicrobial properties. […]

| Compound | compatibility of suspension agent with Ca(OCl)2 [1] | inhibition zone [2] [mm^2] |
| --- | --- | --- |
| polysorbate 80 [TWEEN 80] | compatible with Ca(OCl)2 |  |
| CN[C@H](CC(C)C)C(=O)N[C@H]1C(=O)N[C@@H](CC(N)=O)C(=O)N[C@H]2C(=O)N[C@H]3C(=O)N[C@H](C(=O)N[C@H](C(=O)O)c4cc(O)cc(O)c4-c4cc3ccc4O)[C@H](O)c3ccc(c(Cl)c3)Oc3cc2cc(c3O[C@@H]2O[C@H](CO)[C@@H](O)[C@H](O)[C@H]2O[C@H]2C[C@](C)(N)[C@H](O)[C@H](C)O2)Oc2ccc(cc2Cl)[C@H]1O [Vancomycin] |  | 200 |
